“And” between values parts separate entries of the source, which are not always exact repeats. Equal values may be shown once. Inconclusive results and toxic doses are left out.
System: P388 leukemia ip, CD2F1 mice, survival T/C
Test: NCI In Vivo Anticancer Drug Screen. Data for tumor model P388 Leukemia (intraperitoneal) in CD2F1 (CDF1) mice
Details: endpoint: median survival time, higher = longer survival
Outline: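 Mice carrying the transplanted tumor received test compound or vehicle. Survival was recorded in each group, and the value is the treated-group measurement divided by that of the vehicle-treated control group.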

[1] = dose: 50.0 mg/kg/injection, schedule: Q01DX005 (ip), vehicle: saline with Tween-80
[2] = dose: 100.0 mg/kg/injection, schedule: Q01DX005 (ip), vehicle: saline with Tween-80
[3] = dose: 200.0 mg/kg/injection, schedule: Q01DX005 (ip), vehicle: saline with Tween-80
[4] = dose: 50.0 mg/kg/injection, schedule: Q01DX005 (ip), vehicle: Klucel (hydroxypropylcellulose) (HPC)
[5] = dose: 100.0 mg/kg/injection, schedule: Q01DX005 (ip), vehicle: Klucel (hydroxypropylcellulose) (HPC)
[6] = dose: 200.0 mg/kg/injection, schedule: Q01DX005 (ip), vehicle: Klucel (hydroxypropylcellulose) (HPC)
[7] = dose: 60.0 mg/kg/injection, schedule: Q01DX005 (ip), vehicle: saline with Tween-80
[8] = dose: 120.0 mg/kg/injection, schedule: Q01DX005 (ip), vehicle: saline with Tween-80
[9] = dose: 240.0 mg/kg/injection, schedule: Q01DX005 (ip), vehicle: saline with Tween-80
[10] = dose: 25.0 mg/kg/injection, schedule: Q01DX009 (ip), vehicle: saline with Tween-80
[11] = dose: 50.0 mg/kg/injection, schedule: Q01DX009 (ip), vehicle: saline with Tween-80
[12] = dose: 100.0 mg/kg/injection, schedule: Q01DX009 (ip), vehicle: saline with Tween-80
[13] = dose: 200.0 mg/kg/injection, schedule: Q01DX009 (ip), vehicle: saline with Tween-80

CN(C)C(=O)CC/C=C/C1C=CCCN1Cc1ccccc1 (centres undefined)
T/C (dose: 8.75 mg/kg/injection, schedule: Q01DX005 (ip), vehicle: Klucel (hydroxypropylcellulose) (HPC)): 103 % of control
T/C (dose: 17.5 mg/kg/injection, schedule: Q01DX005 (ip), vehicle: Klucel (hydroxypropylcellulose) (HPC)): 100 % of control
T/C (dose: 35.0 mg/kg/injection, schedule: Q01DX005 (ip), vehicle: Klucel (hydroxypropylcellulose) (HPC)): 100 % of control

Nc1nc2ccc(CO)nc2c(=O)[nH]1
T/C [1]: 98 % of control
T/C [2]: 106 % of control
T/C [3]: 101 % of control

COc1cc2ccccc2c2cc([N+](=O)[O-])oc12
T/C [4]: 110 % of control
T/C [5]: 101 % of control
T/C [6]: 110 % of control

CCOC(=O)Cc1cc(=O)oc2c(CN3CCN(c4ccc(C)cc4)CC3)c(O)ccc12
T/C [7]: 100 % of control
T/C [8]: 87 % of control
T/C [9]: 99 % of control

O=C(/N=C1\N=Nc2nc(C(C(=O)c3ccc(F)cc3)c3nc4n(c3O)/C(=N/C(=O)Nc3ccc(Cl)cc3)N=N4)c(O)n21)Nc1ccc(Cl)cc1 (centres undefined)
T/C [7]: 91 % of control
T/C [8]: 91 % of control
T/C [9]: 88 % of control

CCC[CH2][Sn]([CH2]CCC)([CH2]CCC)[C]1(CCCC2CO2)SCCCS1 (centres undefined)
T/C (dose: 12.5 mg/kg/injection, schedule: Q01DX009 (ip), vehicle: saline with Tween-80): 86 % of control
T/C [10]: 94 % of control
T/C [11]: 108 % of control

COc1cc(C(=O)n2ncc(C(C)=O)c2C)cc(OC)c1OC
T/C [11]: 103 % of control
T/C [12]: 106 % of control
T/C [13]: 116 % of control

CC([NH-])C[NH-].O=C(O)C(=O)O.[Pt+2]
T/C (dose: 6.25 mg/kg/injection, schedule: Q04DX002 (ip), vehicle: saline with Tween-80): 151 % of control
T/C (dose: 6.25 mg/kg/injection, schedule: Q04DX002 (ip), vehicle: saline): 150 % of control

C/C=C(\C)C(=O)OC1C2C(C)=CC(O)C(O)C2(C)C2C3(O)OCC24C1OC(=O)C(O)C4C(C)C3O (centres undefined)
T/C (dose: 2.5 mg/kg/injection, schedule: Q01DX005 (ip), vehicle: Klucel (hydroxypropylcellulose) (HPC)): 108 % of control
T/C (dose: 5.0 mg/kg/injection, schedule: Q01DX005 (ip), vehicle: Klucel (hydroxypropylcellulose) (HPC)): 102 % of control
T/C (dose: 10.0 mg/kg/injection, schedule: Q01DX005 (ip), vehicle: Klucel (hydroxypropylcellulose) (HPC)): 100 % of control
T/C (dose: 20.0 mg/kg/injection, schedule: Q01DX005 (ip), vehicle: Klucel (hydroxypropylcellulose) (HPC)): 105 % of control

CC(=O)Nc1ccc(C(C)C)cc1N
T/C [4]: 100 % of control
T/C [5]: 101 % of control
T/C [6]: 107 % of control

CC(C)(C)/[N+]([O-])=C/C1(C2(/C=[N+](\[O-])C(C)(C)C)Cc3ccccc3C2=O)Cc2ccccc2C1=O (centres undefined)
T/C [7]: 101 % of control
T/C [8]: 105 % of control
T/C [9]: 103 % of control

c1ccc(-c2n[se]c(-c3ccccc3)n2)cc1
T/C (dose: 12.5 mg/kg/injection, schedule: Q04DX002 (ip), vehicle: saline with Tween-80): 102 % of control
T/C (dose: 25.0 mg/kg/injection, schedule: Q04DX002 (ip), vehicle: saline with Tween-80): 95 % of control
T/C (dose: 50.0 mg/kg/injection, schedule: Q04DX002 (ip), vehicle: saline with Tween-80): 93 % of control

COc1ccc(OC)c(NC(=O)CCCC(=O)C(C#N)c2ccccc2C)c1 (centres undefined)
T/C [7]: 105 % of control
T/C [8]: 105 % of control
T/C [9]: 104 % of control

Cc1cc(NCCO)nc2c1ccc1ccccc12
T/C [10]: 90 % of control
T/C [11]: 91 % of control
T/C [12]: 101 % of control

Cc1ccc(CSCC(NC(=O)OC(C)(C)C)C(=O)O)cc1 (centres undefined)
T/C [4]: 104 % of control
T/C [5]: 97 % of control
T/C [6]: 92 % of control

COCC1(C)CCCC2(C)C3=CC(=O)CCC3CCC12 (centres undefined)
T/C (dose: 100.0 mg/kg/injection, schedule: Q04DX003 (ip), vehicle: saline with Tween-80): 100 % of control
T/C (dose: 200.0 mg/kg/injection, schedule: Q04DX003 (ip), vehicle: saline with Tween-80): 108 % of control
T/C (dose: 400.0 mg/kg/injection, schedule: Q04DX003 (ip), vehicle: saline with Tween-80): 95 % of control

CN(Cc1ccccc1)C(=O)Nc1c(Cl)cccc1Cl
T/C [7]: 103 % of control
T/C [8]: 99 % of control
T/C [9]: 95 % of control

Cc1ccc([N+](=O)[O-])cc1NC(=O)Nc1onc(C)c1C
T/C [7]: 87 % of control
T/C [8]: 93 % of control
T/C [9]: 88 % of control

O=C1OCCN1/N=C/C=N/N1CCOC1=O
T/C (dose: 1.56 mg/kg/injection, schedule: Q01DX009 (ip), vehicle: saline with Tween-80): 95 % of control
T/C (dose: 3.12 mg/kg/injection, schedule: Q01DX009 (ip), vehicle: saline with Tween-80): 95 % of control
T/C (dose: 6.25 mg/kg/injection, schedule: Q01DX009 (ip), vehicle: saline with Tween-80): 105 % of control

O=C1C(Cl)=C(Nc2ccc(C#Cc3ccccc3)cc2)C(=O)C(Cl)=C1Nc1ccc(C#Cc2ccccc2)cc1
T/C [11]: 91 % of control
T/C [12]: 91 % of control
T/C [13]: 87 % of control

CCCCOC1OCN(C2CCCCC2)CC1(C)C (centres undefined)
T/C [11]: 104 % of control and 121 % of control
T/C (dose: 400.0 mg/kg/injection, schedule: Q01DX009 (ip), vehicle: saline with Tween-80): 120 % of control

O=[N+]([O-])c1ccc(NN=C(CO)CO)c([N+](=O)[O-])c1
T/C (dose: 50.0 mg/kg/injection, schedule: Q01DX009 (ip), vehicle: suspension in saline): 98 % of control
T/C (dose: 100.0 mg/kg/injection, schedule: Q01DX009 (ip), vehicle: suspension in saline): 98 % of control
T/C (dose: 200.0 mg/kg/injection, schedule: Q01DX009 (ip), vehicle: suspension in saline): 97 % of control
T/C (dose: 400.0 mg/kg/injection, schedule: Q01DX009 (ip), vehicle: suspension in saline): 97 % of control

CC1(O)C2CCCCC2C2CCCCC2C1(C)O (centres undefined)
T/C [1]: 101 % of control
T/C [2]: 100 % of control
T/C [3]: 103 % of control

C[As](C)[Se]CC1OC2OC(C)(C)OC2C2OC(C)(C)OC12 (centres undefined)
T/C (dose: 50.0 mg/kg/injection, schedule: Q01DX009 (ip), vehicle: Klucel (hydroxypropylcellulose) (HPC)): 89 % of control
T/C (dose: 100.0 mg/kg/injection, schedule: Q01DX009 (ip), vehicle: Klucel (hydroxypropylcellulose) (HPC)): 90 % of control
T/C (dose: 200.0 mg/kg/injection, schedule: Q01DX009 (ip), vehicle: Klucel (hydroxypropylcellulose) (HPC)): 92 % of control

CN(C)CC/C=C1\c2ccccc2Sc2ccc(Cl)cc21
T/C (dose: 12.5 mg/kg/injection, schedule: Q01DX005 (ip), vehicle: Klucel (hydroxypropylcellulose) (HPC)): 107 % of control and 112 % of control
T/C (dose: 25.0 mg/kg/injection, schedule: Q01DX005 (ip), vehicle: Klucel (hydroxypropylcellulose) (HPC)): 117 % of control and 120 % of control
T/C [4]: 117 % of control

CCOC(=O)C1=NCCS1
T/C [1]: 98 % of control
T/C [2]: 99 % of control
T/C [3]: 99 % of control

Cn1c(=O)c2c(ncn2-c2ccc(N)cn2)n(C)c1=O
T/C (dose: 12.5 mg/kg/injection, schedule: Q01DX005 (ip), vehicle: distilled water + alcohol): 98 % of control
T/C (dose: 25.0 mg/kg/injection, schedule: Q01DX005 (ip), vehicle: distilled water + alcohol): 104 % of control
T/C [4]: 96 % of control
T/C (dose: 50.0 mg/kg/injection, schedule: Q01DX005 (ip), vehicle: distilled water + alcohol): 100 % of control

Cc1ccnc2n[nH]nc12
T/C (dose: 100.0 mg/kg/injection, schedule: Q04DX002 (ip), vehicle: water): 109 % of control
T/C (dose: 200.0 mg/kg/injection, schedule: Q04DX002 (ip), vehicle: water): 107 % of control
T/C (dose: 400.0 mg/kg/injection, schedule: Q04DX002 (ip), vehicle: water): 103 % of control

CC12CCC(OC3OC(CO)C(O)C(O)C3O)CC1CCC1C2CCC2(C)C(c3ccc(=O)oc3)CCC12O (centres undefined)
T/C (dose: 0.35 mg/kg/injection, schedule: Q01DX009 (ip), vehicle: saline): 96 % of control
T/C (dose: 0.7 mg/kg/injection, schedule: Q01DX009 (ip), vehicle: saline): 102 % of control
T/C (dose: 1.4 mg/kg/injection, schedule: Q01DX009 (ip), vehicle: saline): 100 % of control

CCOC(=O)c1[nH]c(=O)[nH]c(=O)c1CBr
T/C (dose: 12.5 mg/kg/injection, schedule: Q01DX009 (ip), vehicle: distilled water + Tween-80): 98 % of control
T/C (dose: 25.0 mg/kg/injection, schedule: Q01DX009 (ip), vehicle: distilled water + Tween-80): 98 % of control
T/C (dose: 50.0 mg/kg/injection, schedule: Q01DX009 (ip), vehicle: distilled water + Tween-80): 98 % of control
T/C (dose: 100.0 mg/kg/injection, schedule: Q01DX009 (ip), vehicle: distilled water + Tween-80): 98 % of control

CN(C)c1nc(Cl)c2cc(Cl)ccc2n1
T/C (dose: 60.0 mg/kg/injection, schedule: Q01DX005 (ip), vehicle: Klucel (hydroxypropylcellulose) (HPC)): 100 % of control
T/C (dose: 120.0 mg/kg/injection, schedule: Q01DX005 (ip), vehicle: Klucel (hydroxypropylcellulose) (HPC)): 99 % of control

From PubChem BioAssay AID330 (DTP/NCI, 2004)
